Experimental data reported in US12697353B2, “Compositions comprising cinnamaldehyde and zinc and methods of using such compositions” (SOCIÉTÉ DES PRODUITS NESTLÉ S.A., priority 2015, dated 2026).

Experiments:
[1] = chin temperature after ingestion in human subjects; type: in vivo; conditions: eighty minutes following ingestion, FIG. 8
Procedure: The chin temperature of the subjects was measured over the eighty minutes following ingestion of the various compounds.

[2] = postprandial fat oxidation after ingestion in human subjects; type: in vivo
Procedure: The postprandial fat oxidation was measured over the 90 minutes following ingestion of the various compounds.

[3] = nose temperature after ingestion in human subjects; type: in vivo; conditions: fifteen minutes following ingestion, FIG. 7
Procedure: The nose temperature of the subjects was analyzed over the fifteen minutes following ingestion of the various compounds.

[4] = molecular target: T1, hTRPA1 expressed in CHO cells (Homo sapiens, UniProt O75762); test: in vitro activity of hTRPA1 expressed in CHO cells, intracellular calcium concentration with a fluorescent dye; type: cell-based; design: dose or concentration left out as unconfirmed; conditions: according to a dose-response curve
T1 construct: expressed in transfected cells; host or cells: CHO cells

TRPA1 = TRPA1 (Homo sapiens, UniProt O75762); conditions: read-out: EC50 of TRPA1 activation; cited from earlier work
[5] = insulin sensitivity in mice with chronic ingestion of cinnamaldehyde in a high fat diet; type: in vivo; conditions: mice chronically fed a high fat diet containing 0.2 wt % cinnamaldehyde, FIG. 11
Description: The composition can thereby reduce glycemia.

[6] = energy expenditure after ingestion in human subjects; type: in vivo
Procedure: Human subjects were administered placebo, a cooling flavor, capsaicin, or cinnamaldehyde. The energy expenditure was measured over the eighty minutes following ingestion. […] The increased sympathetic activity identified by measuring the facial temperature (increased blood flow on the chin) might explain the increased energy expenditure measured by indirect calorimetry.

[7] = at a flavoring level judged significantly less intense than capsaicin

T1 sequence (O75762 whole entry): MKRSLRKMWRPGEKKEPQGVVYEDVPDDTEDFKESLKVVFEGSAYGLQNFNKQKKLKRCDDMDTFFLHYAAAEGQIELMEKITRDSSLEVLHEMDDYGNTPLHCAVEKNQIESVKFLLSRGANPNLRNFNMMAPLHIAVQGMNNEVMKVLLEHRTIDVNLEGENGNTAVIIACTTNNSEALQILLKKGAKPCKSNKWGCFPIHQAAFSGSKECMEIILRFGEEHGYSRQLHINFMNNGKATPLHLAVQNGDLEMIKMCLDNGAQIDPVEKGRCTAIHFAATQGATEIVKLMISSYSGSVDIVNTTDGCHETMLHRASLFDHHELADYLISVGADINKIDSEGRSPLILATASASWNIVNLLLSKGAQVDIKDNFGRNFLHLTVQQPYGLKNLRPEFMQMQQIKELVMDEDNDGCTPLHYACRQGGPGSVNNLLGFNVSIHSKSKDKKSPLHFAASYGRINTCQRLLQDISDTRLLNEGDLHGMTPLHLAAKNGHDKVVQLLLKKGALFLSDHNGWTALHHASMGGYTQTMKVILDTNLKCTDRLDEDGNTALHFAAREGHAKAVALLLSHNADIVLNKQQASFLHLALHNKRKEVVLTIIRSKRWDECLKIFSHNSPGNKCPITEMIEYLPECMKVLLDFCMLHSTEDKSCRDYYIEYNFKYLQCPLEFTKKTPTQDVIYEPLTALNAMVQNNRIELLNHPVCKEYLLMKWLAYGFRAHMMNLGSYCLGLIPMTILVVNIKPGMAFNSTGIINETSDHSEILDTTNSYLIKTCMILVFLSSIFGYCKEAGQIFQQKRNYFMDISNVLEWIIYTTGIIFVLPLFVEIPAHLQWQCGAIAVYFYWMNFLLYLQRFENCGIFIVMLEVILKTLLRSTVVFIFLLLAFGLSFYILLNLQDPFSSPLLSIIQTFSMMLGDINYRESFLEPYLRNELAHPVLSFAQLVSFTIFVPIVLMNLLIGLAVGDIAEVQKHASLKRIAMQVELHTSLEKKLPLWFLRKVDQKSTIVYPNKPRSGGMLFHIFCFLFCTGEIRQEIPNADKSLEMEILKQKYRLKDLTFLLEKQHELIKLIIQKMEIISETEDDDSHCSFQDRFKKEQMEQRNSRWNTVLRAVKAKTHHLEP
TRPA1, sequence (O75762 whole entry, species assumed): as the sequence (O75762 whole entry) above

Compound	chin temperature relative to baseline [1]	effect on fat oxidation compared to capsaicin [2, 7]	postprandial fat oxidation compared to placebo ([2]; human subjects, 90 minutes following ingestion, time course and AUC, FIGS. 5 and 6)	nose temperature [3]	efficacy on hTRPA1 of the positive control C+ [4]	EC50 (TRPA1) [µM]	insulin sensitivity relative to mice fed the same high fat diet without cinnamaldehyde [5]	impact on energy expenditure and sympathetic nervous system activity compared to capsaicin [6, 7]	energy expenditure compared to placebo ([6]; human subjects, eighty minutes following ingestion, time course and AUC, FIGS. 3 and 4)
O=CC=Cc1ccccc1 [cinnamaldehyde]	increases chin temperature for a prolonged time	equivalent effect	maintained at higher levels	increase nose temperatures	maximum efficacy	~10	improved insulin sensitivity	significantly higher impact	increased
COc1cc(CNC(=O)CCCC/C=C/C(C)C)ccc1O [capsaicin, reference compound]				increase nose temperatures					
